Assay results: patent US7998985B2, “1,5-diphenyl-3-pyridinylamino-1,5-dihydropyrrolidin-2-one as CB1 receptor modulator” (Eli Lilly and Company, priority 2006, dated 2011)

How the values were obtained:
male Sprague-Dawley rats = assay: Microdialysis of monoamines and metabolites in prefrontal cortex; type: in vivo; settings: rat prefrontal cortex microdialysate; doses as low as 1 mg/kg, p.o.
Description: Methods: Implant male Sprague-Dawley rats (260-300 g, Taconic Farms, Germantown, N.Y.) with a cannula (BAS, West Lafayette, Ind.) in the prefrontal cortex (PFC) 5-7 days before the experiment. Insert a concentric type probe with a 4 mm membrane tip extending below the cannula through the cannula about 16 hours before the experiment began and collect the microdialysate from prefrontal cortex and analyze for monoamines and their metabolites. Calculate all microdialysis data as percent change from dialysate basal concentrations with 100% defined as the average of the final three drug pre-injection values and each group having 5-6 rats. Analyze data with ANOVA and follow by a post-hoc Bonferroni test.

[1] = system: alcohol-preferring (P) rats; assay: 12-hour ethanol consumption in alcohol-preferring rats (P rats); type: in vivo, rat; settings: female P rats, 15% (v/v) ethanol, continuous free access; Example 2 given p.o.
Text: Evaluate Example 2 for its ability to reduce consumption of ethanol in rats selectively bred for high oral ethanol intake (P rats). In addition, study the effects of Example 2 under conditions in which effects of the compound on motivation or the control of behavior by ethanol could be assessed.
Methods: Study the effects of Example 2 on female, alcohol-preferring (P) rats on alcohol consumption under a continuous free access paradigm. For comparative purposes test the standard opioid antagonist naltrexone. Monitor voluntary consumption of 15% (v/v) ethanol. Suspend Example 2 in vehicle (1% CMC, 0.5% SLS, 0.08% povidone, 0.05% Dow Corning antifoam 1510 US) and give p.o. 3 hours prior to the onset of the dark cycle. In addition, measure locomotor activity via infrared sensor.

[2] = system: diet-induced obese (DIO) male Long-Evans rats; assay: Feeding model in diet-induced obese (DIO) rats, 14 days; type: in vivo, rat
Text: Methods: Administer Example 2 to diet-induced obese (DIO) male Long-Evans rats. Establish DIO by ad lib feeding from weanling of a diet consisting of 40% fat, 39% carbohydrate and 21% protein caloric content for at least 12 weeks. Define compound potency by T17 (the dose required to produce a difference from the vehicle group of 17 grams). This represents a minimally biologically relevant reduction of 3-4% of body weight compared to vehicle treatment after 2 weeks.

## CC(C)(N[C@@H]1C[C@H](c2cccc(OC(F)(F)F)c2)N(c2ccc(C(F)(F)F)cc2)C1=O)c1ccc(C(F)(F)F)nc1.Cc1ccc(S(=O)(=O)O)cc1 [Example 2, (3R,5R)-3-[1-methyl-1-(6-trifluoromethyl-pyridin-3-yl)-ethylamino]-1-(4-trifluoromethyl-phenyl)-5-(3-trifluoromethoxy-phenyl)-pyrrolidin-2-one, 4-methylbenzenesulfonate (1:1)]
Male Sprague-Dawley rats
  cortical monoamine and metabolite levels: Increase rat cortical monoamine and metabolite levels
[1]
  consumption of ethanol: decreased in a dose-dependent manner
[2]
  fat free mass (QNMR): minimal changes in fat free mass at one of the highest doses
[2]; 14-day oral treatment
  cumulative body weight: reduction of cumulative body weight
[2]; 14-day oral treatment, estimated
  T17 (dose producing a 17 gram body weight difference from vehicle): 0.13 mg/kg
[2]; daily oral, 14 days, as restated
  efficacy dose (T17) for change in body mass from control: 0.13 mg/kg/day
[2]; doses 0.1-10 mg/kg
  fat mass (QNMR): significant reductions in fat mass
[2]; once daily orally, 14 days
  cumulative food intake: Decrease cumulative food intake
